# Experimental data from publication PMC7175962 (Journal of medicinal chemistry, 2019).
# What was measured:
# NDM-1 = NDM-1 (Klebsiella pneumoniae, UniProt C7C422); assay: NDM-1 inhibition, nitrocefin hydrolysis assay; type: biochemical
# [1] = test system: K. pneumoniae 5979 (NDM-1); assay: MIC of imipenem in combination with inhibitor; type: cell-based; settings: for reduction of imipenem MIC: compound at 128 μg/mL, NDM-1 producing K. pneumoniae
# [2] = test system: Gram-negative pathogens (all strains); assay: Antibacterial activity of inhibitors alone; type: cell-based; settings: for antibacterial effects by itself, without imipenem: 128 μg/mL; for MIC: read-out: MIC of compound tested alone
# E. coli 5980 (NDM-1) = assay: MIC of imipenem in combination with inhibitor; type: cell-based; settings: for reduction of imipenem MIC: compound at 128 μg/mL, NDM-1 producing E. coli
# E. cloacae 5981 (NDM-1) = assay: MIC of imipenem in combination with inhibitor; type: cell-based; settings: for reduction of imipenem MIC: compound at 128 μg/mL, NDM-1 producing E. cloacae
# [3] = test system: P. aeruginosa 4698 (VIM-2); assay: MIC of imipenem in combination with inhibitor; type: cell-based
# [4] = Kinetic solubility in pH 7.4 PBS; type: physicochemical
# KPC-2 = KPC-2 (Klebsiella pneumoniae, UniProt Q9F663); type: biochemical
# VIM-2 = VIM-2 (Pseudomonas aeruginosa, UniProt Q9K2N0); assay: VIM-2 inhibition, nitrocefin hydrolysis assay; type: biochemical; settings: VIM-2 versus NDM-1
# [5] = test system: P. aeruginosa 4129 (NDM-1), lacking efflux pumps; assay: Checkerboard assay, imipenem plus inhibitor; type: cell-based
# [6] = test system: P. aeruginosa 4882 (VIM-2), lacking efflux pumps; assay: Checkerboard assay, imipenem plus inhibitor; type: cell-based
# [7] = test system: K. pneumoniae C2 (KPC-2), clinical strain; assay: Checkerboard assay, imipenem plus inhibitor; type: cell-based
# [8] = test system: P. aeruginosa(eflx+) 4177 (NDM-1); assay: Checkerboard assay, imipenem plus inhibitor; type: cell-based
# [9] = test system: P. aeruginosa 4135 (KPC-2), lacking efflux pumps; assay: Checkerboard assay, imipenem plus inhibitor; type: cell-based; settings: Pseudomonas aeruginosa, read-out: MIC of imipenem
# [10] = test system: P. aeruginosa(eflx+) 4402 (VIM-2); assay: Checkerboard assay, imipenem plus inhibitor; type: cell-based; settings: Pseudomonas aeruginosa, read-out: MIC of imipenem
# [11] = test system: P. aeruginosa(eflx+) 4175 (vector); assay: MIC of imipenem, vector control strain; type: cell-based; settings: Pseudomonas aeruginosa, read-out: MIC of imipenem
# [12] = test system: P. aeruginosa 4173 (vector); assay: MIC of imipenem, vector control strain; type: cell-based; settings: Pseudomonas aeruginosa, read-out: MIC of imipenem
# [13] = test system: K. pneumoniae 4683 (KPC-2); assay: MIC of imipenem in combination with inhibitor; type: cell-based; settings: Klebsiella pneumoniae, read-out: MIC of imipenem
# [14] = Pseudomonas aeruginosa, read-out: MIC of imipenem
# [15] = Klebsiella pneumoniae, read-out: MIC of imipenem
# Chain of KPC-2 (Q9F663 25-293, looked up): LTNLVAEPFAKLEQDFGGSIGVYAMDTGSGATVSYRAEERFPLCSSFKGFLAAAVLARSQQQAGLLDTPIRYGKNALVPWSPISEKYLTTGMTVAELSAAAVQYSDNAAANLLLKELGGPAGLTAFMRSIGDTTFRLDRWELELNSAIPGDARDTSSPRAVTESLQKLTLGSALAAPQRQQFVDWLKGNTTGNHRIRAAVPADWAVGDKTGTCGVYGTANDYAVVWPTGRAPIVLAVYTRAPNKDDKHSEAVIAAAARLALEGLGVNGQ
# Chain of NDM-1 (C7C422 29-270, looked up): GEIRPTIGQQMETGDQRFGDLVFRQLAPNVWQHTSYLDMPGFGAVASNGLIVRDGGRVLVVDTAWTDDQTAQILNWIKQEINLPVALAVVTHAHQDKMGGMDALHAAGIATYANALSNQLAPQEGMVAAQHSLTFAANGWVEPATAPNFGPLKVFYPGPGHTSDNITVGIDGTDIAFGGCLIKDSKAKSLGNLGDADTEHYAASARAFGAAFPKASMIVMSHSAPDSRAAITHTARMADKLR
compound,measurement,setting,value
"O=c1cc(CP(=O)(O)O)c2c(F)cc(F)cc2o1 [Compound 8, [(5,7-difluoro-2-oxo-2H-chromen-4-yl)methyl]phosphonic acid]",Ki (NDM-1),"NDM-1; nitrocefin substrate, 37 °C, pH 7.2, 50 μM zinc sulfate",did not show inhibition
same,NDM-1 inhibition after pre-incubation of the compound with NDM-1,"NDM-1; pre-incubation, data not shown",weak inhibitory activity
"Cc1cc(Br)c2c(CP(=O)(O)O)cc(=O)oc2c1 [Compound 9, [(5-bromo-7-methyl-2-oxo-2H-chromen-4-yl)methyl]phosphonic acid]",reduction of imipenem MIC,[1],more than 2 fold
same,"antibacterial effects by itself, without imipenem",[2],neither 9 nor 16 showed any antibacterial effects
same,MIC,[2],> 128 µg/mL
same,reduction of imipenem MIC,E. coli 5980 (NDM-1),4 fold
same,reduction of imipenem MIC,E. cloacae 5981 (NDM-1),did not have any activity
"O=c1cc(CP(=O)(O)O)c2ccccc2[nH]1 [Compound 11, [(2-oxo-1,2-dihydroquinolin-4-yl)methyl]phosphonic acid]",MIC of imipenem in the presence of compound,[3]; compound at 128 μg/mL,>64 µg/mL
same,reduction of imipenem MIC,[1],little if any effect
same,MIC,[2],> 128 µg/mL
same,reduction of imipenem MIC,E. coli 5980 (NDM-1),little if any effect
same,reduction of imipenem MIC,E. cloacae 5981 (NDM-1),little if any effect
"Cc1cc(C)c2c(CP(=O)(O)O)cc(=O)[nH]c2c1 [Compound 13, [(5,7-dimethyl-2-oxo-1,2-dihydroquinolin-4-yl)methyl]phosphonic acid]",MIC of imipenem in the presence of compound,[3]; compound at 128 μg/mL,>64 µg/mL
same,reduction of imipenem MIC,"[3]; compound at 128 μg/mL, VIM-2 producing P. aeruginosa",unable to rescue imipenem activity
same,reduction of imipenem MIC,[1],unable to rescue imipenem activity
same,solubility kinetic,[4],51.6 µg/mL
same,MIC,[2],> 128 µg/mL
same,reduction of imipenem MIC,E. coli 5980 (NDM-1),4 fold
same,reduction of imipenem MIC,E. cloacae 5981 (NDM-1),unable to rescue imipenem activity
"O=P(O)(O)Cc1ccnc2ccccc12 [Compound 15, [(quinolin-4-yl)methyl]phosphonic acid]",potencies and ligand efficiencies inferior to DHQ comparator 11 (KPC-2),KPC-2; relative to compound 11,2–5 times
"O=c1cc(CP(=O)(O)O)c2c(Br)cc(Br)cc2[nH]1 [Compound 16, [(5,7-dibromo-2-oxo-1,2-dihydroquinolin-4-yl)methyl]phosphonic acid]",higher affinity for VIM-2 than NDM-1,VIM-2,~ 100 x
same,reduction of imipenem MIC,[5]; 16 at 128 μg/mL,16 fold
same,reduction of imipenem MIC,"[6]; 16 at 128 μg/mL, maximum observable",16 fold
same,increase in activity on replacing C7-Me in 9 by -Br (KPC-2),KPC-2; relative to compound 9,~ 12 fold
same,activity improved over the parent DHQ analog 11 (KPC-2),KPC-2; relative to compound 11,"~ 7,000 fold"
same,solubility kinetic,[4],95.9 µg/mL
same,"antibacterial effects by itself, without imipenem",[2],neither 9 nor 16 showed any antibacterial effects
same,MIC of imipenem in the presence of 16,[7]; 16 at 16 μg/mL,16 µg/mL
same,"decrease in potency by overexpressing efflux pumps, against NDM-1",[8]; eflx+ versus efflux-deleted strain,up to 4 fold
"C[C@@H](O)[C@H]1C(=O)N2C(C(=O)O)=C(SCCN=CN)C[C@H]12 [Imipenem, imipenem, reference compound]",MIC,[9],64 µg/mL
same,MIC,[10],32 µg/mL
same,MIC,[5]; [14],128 µg/mL
same,MIC,[3]; [14],> 64 µg/mL
same,MIC,[6]; [14],32 µg/mL
same,MIC,[1]; [15],> 64 µg/mL
same,MIC,[11],2 µg/mL
same,MIC,[7]; [15],512 µg/mL
same,MIC,[12],2 µg/mL
same,MIC,[8]; [14],128 µg/mL
same,MIC,"E. coli 5980 (NDM-1); Escherichia coli, read-out: MIC of imipenem",8 µg/mL
same,MIC,[13],64 µg/mL
same,MIC,"E. cloacae 5981 (NDM-1); Enterobacter cloacae, read-out: MIC of imipenem",2 µg/mL
NC(=O)[C@@H]1CC[C@@H]2CN1C(=O)N2OS(=O)(=O)O [avibactam],MIC of imipenem in the presence of avibactam,[7]; avibactam at 16 μg/mL,1 µg/mL
same,reduction of imipenem MIC,[7]; inhibitor at 16 μg/mL,512 fold
